Source: patent US10736968B2, “Cellular signalling inhibitors, their formulations and methods thereof” (INVICTUS ONCOLOGY PVT. LTD., priority 2016, dated 2020)

System: 4T1 breast cancer
Experiment: 4T1 breast cancer model (tumor growth, lung metastatic nodules, survival)
Type: in vivo, Balb/c mice
Conditions: for number of metastatic nodules in lungs: lungs harvested on day 12
From the text: FIG. 7. Effect of BLN101 on breast tumor growth inhibition. To validate the therapeutic efficacy of BLN101 (as AK750 formulation), we randomly sorted mice bearing 4T1 breast cancer into four groups and treated each group with one of the following: blank vehicle (control); AK750; an antiCSF1 antibody, and BLZ945. Treatment was strated when the tumors reached −75 mm^3 in volume. The day of first injection is considered Day 0). Vehicle-treated animals formed large tumors by Day 12, and consequently were killed. The animals in the other groups were also killed at the same time point to evaluate the effect of the treatments on tumor pathology. […] (b) Changes in body weight were within the acceptable limits.
Later, macrophages are isolated from the tumors and analyzed the cells for expression of markers CD11b+CD206+, CD11b+MHC-II+, CD11b+CD86+ and CD11b+CD80+ on the cells using flow cytometry. […] The tumor-bearing animals are injected with three doses of either Vehicle (for control group), 45 mg/kg of free BLZ-945, 45 mg/kg of BLN101 (in a AK750 formulation), or 25 mg/kg of CSF-1 neutralizing antibody, on day 0, day 4 and day 8. First day of treatment was considered as Day 0. […] Number of metastatic nodules present in the lungs is also quantified. Lungs were harvested from the mice on day 12 following the above treatment, washed with cold PBS followed by which the number of metastatic nodules were counted. […] Later, macrophages are isolated from the tumors and analyzed the cells for expression of markers CD11b+CD206+, CD11b+MHC-II+, CD11b+CD86+ on the cells using flow cytometry. […] SIRPα is a ‘eat-me-not’ signaling, which cancer cells engage with a CD47 ligand, and prevents phagocytosis of the cancer cells. The antibody that inhibits SIRPα was conjugated to the PEG chains on the surface of the AK750 supramolecular nanoparticles. A non-specific IgG was used as controls. […] Furthermore, melanoma-bearing mice is treated with a single dose of SIRPα antibody, AK750 or the SIRPα-AK750. […]

Row | Structure (SMILES) | tumor growth / progression (45 mg/kg on day 0, day 4 and day 8) | number of metastatic nodules in lungs
1 | CNC(=O)c1cc(Oc2ccc3nc(N[C@@H]4CCCC[C@H]4O)sc3c2)ccn1 [BLZ-945] | decreased tumor growth compared with vehicle-treated animals | reduction as compared to CSF-1 neutralizing antibody and the vehicle control
2 | CNC(=O)c1cc(Oc2ccc3nc(NC4CCCC[C@H]4OC(=O)CCC(=O)O[C@H]4CC[C@@]5(C)C(=CC[C@H]6[C@@H]7CC[C@H](C(C)CCCC(C)C)[C@@]7(C)CC[C@@H]65)C4)sc3c2)ccn1 (stereo in doubt) [BLN101] |  | complete inhibition of formation of metastatic nodules
